Test results published in patent US11814367B2, “Inhibitors of glycogen synthase 1 (GYS1) and methods of use thereof” (Maze Therapeutics, Inc., priority 2021, dated 2023).

What was measured:
[1] = test system: hGYS1 enzyme / glycogen synthesis in HeLa cells; assay: GYS1 cell based assay (glycogen synthesis, Glucose-glo); set-up: species or system human; settings: Homo sapiens, HeLa, 24 h, 24 h incubation, 20 mM glucose, geometric mean of at least 2 runs
Procedure, shortened: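 HeLa cells starved 24 h in medium containing only 1× Glutamax were plated onto compound in medium with 20 mM glucose (1% DMSO final) for 24 h, 37 °C, 5% CO2. Acid lysates were Tris-quenched, glucoamylase-digested (pH 5.3, 1 h, 37 °C) and read by Glucose-glo luminescence. IC50 came from Hill fits, as geometric mean of ≥2 runs.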

[2] = target: hGYS2 enzyme (recombinant hGYS2/GN1 protein) (Homo sapiens (Human), UniProt P54840); assay: GYS2 coupled enzyme assay (PK/LDH); type: biochemical; settings: geometric mean of at least 2 assay runs on separate days, read-out: Avg_IC50
Chain of hGYS2 enzyme (recombinant hGYS2/GN1 protein) (P54840 whole entry): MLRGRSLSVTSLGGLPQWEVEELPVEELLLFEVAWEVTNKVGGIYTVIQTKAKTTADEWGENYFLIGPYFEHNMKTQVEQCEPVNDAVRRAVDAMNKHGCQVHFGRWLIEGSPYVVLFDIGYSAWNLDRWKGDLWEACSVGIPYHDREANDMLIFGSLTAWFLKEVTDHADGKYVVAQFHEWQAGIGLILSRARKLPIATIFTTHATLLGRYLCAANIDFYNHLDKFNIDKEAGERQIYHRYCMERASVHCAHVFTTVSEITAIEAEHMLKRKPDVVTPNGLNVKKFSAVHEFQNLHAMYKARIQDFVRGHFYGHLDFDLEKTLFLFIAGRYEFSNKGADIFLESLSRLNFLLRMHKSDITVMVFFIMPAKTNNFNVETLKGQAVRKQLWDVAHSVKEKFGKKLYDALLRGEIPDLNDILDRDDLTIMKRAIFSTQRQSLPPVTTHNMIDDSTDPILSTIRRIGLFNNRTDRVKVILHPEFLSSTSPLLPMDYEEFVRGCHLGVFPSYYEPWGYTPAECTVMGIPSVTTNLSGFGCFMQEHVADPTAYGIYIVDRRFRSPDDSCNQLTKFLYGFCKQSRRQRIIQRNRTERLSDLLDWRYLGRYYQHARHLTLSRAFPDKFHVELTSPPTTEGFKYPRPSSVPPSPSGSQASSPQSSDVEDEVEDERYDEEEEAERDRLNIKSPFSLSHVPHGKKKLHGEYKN
Chain of hGYS2 enzyme (recombinant hGYS2/GN1 protein) (P46976 whole entry partner): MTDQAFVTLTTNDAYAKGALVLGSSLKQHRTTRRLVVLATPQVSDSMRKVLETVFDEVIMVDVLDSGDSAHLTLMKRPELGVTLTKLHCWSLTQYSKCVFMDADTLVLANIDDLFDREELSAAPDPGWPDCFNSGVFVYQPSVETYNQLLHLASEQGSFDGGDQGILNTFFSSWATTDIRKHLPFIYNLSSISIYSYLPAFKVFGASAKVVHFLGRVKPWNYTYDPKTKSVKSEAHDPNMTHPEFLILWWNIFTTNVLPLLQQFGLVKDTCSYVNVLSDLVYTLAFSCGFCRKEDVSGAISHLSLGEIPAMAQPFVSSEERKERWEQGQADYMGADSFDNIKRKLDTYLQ
Procedure, shortened: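 IC50 came from Hill fits of duplicate percent inhibition, based on control-normalized slopes of 340 nm NADH decline read each minute for 10 min. The reaction held recombinant hGYS2/GN1 (200 nM) with glycogen, UDP-glucose, G6P and PEP, plus PK/LDH coupling at pH 7.5 and 2.5% DMSO.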

[3] = target: hGYS1 enzyme (recombinant hGYS1/GN1 protein) (Homo sapiens (Human), UniProt P13807); assay: GYS1 coupled enzyme assay (PK/LDH); type: biochemical; settings: hGYS1/GN1 50 nM, UDP-Glucose 0.8 mM, G6P 1 mM; geometric mean of at least 2 runs
Chain of hGYS1 enzyme (recombinant hGYS1/GN1 protein) (P13807 whole entry): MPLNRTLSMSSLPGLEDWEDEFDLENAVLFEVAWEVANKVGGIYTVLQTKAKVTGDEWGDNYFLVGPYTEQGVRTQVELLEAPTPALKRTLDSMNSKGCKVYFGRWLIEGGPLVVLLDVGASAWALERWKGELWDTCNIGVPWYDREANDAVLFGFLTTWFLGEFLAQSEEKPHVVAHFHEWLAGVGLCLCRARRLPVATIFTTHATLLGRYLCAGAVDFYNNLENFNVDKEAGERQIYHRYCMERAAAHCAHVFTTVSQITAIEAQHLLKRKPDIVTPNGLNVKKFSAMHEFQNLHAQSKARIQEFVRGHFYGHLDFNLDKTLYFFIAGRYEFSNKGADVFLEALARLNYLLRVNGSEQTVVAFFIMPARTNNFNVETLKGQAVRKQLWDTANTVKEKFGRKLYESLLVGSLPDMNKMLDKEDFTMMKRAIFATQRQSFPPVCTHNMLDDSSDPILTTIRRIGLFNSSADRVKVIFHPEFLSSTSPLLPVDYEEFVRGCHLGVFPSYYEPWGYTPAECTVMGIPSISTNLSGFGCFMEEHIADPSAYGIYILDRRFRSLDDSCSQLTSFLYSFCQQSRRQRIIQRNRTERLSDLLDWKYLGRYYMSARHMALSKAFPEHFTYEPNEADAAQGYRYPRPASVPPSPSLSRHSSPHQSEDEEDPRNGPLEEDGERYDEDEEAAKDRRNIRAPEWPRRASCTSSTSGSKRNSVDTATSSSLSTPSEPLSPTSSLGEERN
Chain of hGYS1 enzyme (recombinant hGYS1/GN1 protein) (P46976 whole entry partner): as the sequence (P46976 whole entry partner) above

SMILES | IC50 [1] | IC50 [2] | IC50 [3]
O=C(N[C@@H](c1ccccc1)c1ccc(C2CC(F)(F)C2)cn1)[C@@H]1C[C@@H](F)CN1C(=O)CNC(=O)N1CC(F)(F)C1 [Compound 538, (2S,4R)-1-{2-[(3,3-difluoroazetidine-1-carbonyl)amino]acetyl}-N-[(S)-[5-(3,3-difluorocyclobutyl)pyridin-2-yl](phenyl)methyl]-4-fluoropyrrolidine-2-carboxamide] | 1220 nM | > 100000 nM | 48 nM
CC(C)c1ccc([C@@H](NC(=O)[C@@H]2C[C@@H](F)CN2C(=O)Cc2cccn3c(=O)[nH]nc23)c2ccccc2)nc1F [Compound 391, (2S,4R)-4-fluoro-N-[(S)-[6-fluoro-5-(propan-2-yl)pyridin-2-yl](phenyl)methyl]-1-(2-{3-oxo-2H,3H-[1,2,4]triazolo[4,3-a]pyridin-8-yl}acetyl) pyrrolidine-2-carboxamide] | 150 nM | 89300 nM | 6 nM
O=C(N[C@@H](c1ccccc1)c1ccc(C2CC2)c(F)n1)[C@@H]1C[C@@H](F)CN1C(=O)Cn1ccc(=O)[nH]c1=O [Compound 727, (2S,4R)-N-[(S)-(5-cyclopropyl-6-fluoropyridin-2-yl)(phenyl)methyl]-1-[2-(2,4-dioxo-1,2,3,4-tetrahydropyrimidin-1-yl)acetyl]-4-fluoropyrrolidine-2-carboxamide] | 910 nM | > 100000 nM | 17 nM
O=C(N[C@@H](c1ccccc1)c1ccc(C2CC2)c(F)c1)[C@@H]1C[C@@H](F)CN1C(=O)CN1Cc2ccccc2C1=O [Compound 453, (2S,4R)-N-[(S)-(4-cyclopropyl-3-fluorophenyl)(phenyl)methyl]-4-fluoro-1-[2-(1-oxo-2,3-dihydro-1H-isoindol-2-yl)acetyl] pyrrolidine-2-carboxamide] | 1840 nM | > 100000 nM | 77 nM
CC(C)c1ccc([C@@H](NC(=O)[C@@H]2C[C@@H](F)CN2C(=O)CNC(=O)N2CCNCC2)c2ccccc2)cc1F [Compound 365, N-{2-[(2S,4R)-4-fluoro-2-{[(S)-[3-fluoro-4-(propan-2-yl)phenyl](phenyl)methyl]carbamoyl}pyrrolidin-1-yl]-2-oxoethyl}piperazine-1-carboxamide] | 1190 nM | > 100000 nM | 7 nM
O=C(N[C@H](c1ccccc1)c1ccc(C2CC(F)(F)C2)c(F)n1)[C@@H]1C[C@@H](F)CN1C(=O)Cc1ccc(=O)[nH]c1 [Compound 520, (2S,4R)-N-[(R)-[5-(3,3-difluorocyclobutyl)-6-fluoropyridin-2-yl](phenyl)methyl]-4-fluoro-1-[2-(6-oxo-1,6-dihydropyridin-3-yl)acetyl]pyrrolidine-2-carboxamide] | > 30000 nM | > 100000 nM | 557 nM
O=C(N[C@@H](c1ccccc1)c1ccc(C2CC(F)(F)C2)c(F)n1)[C@@H]1C[C@@H](F)CN1C(=O)Cc1ccc(=O)[nH]c1 [Compound 516, (2S,4R)-N-[(S)-[5-(3,3-difluorocyclobutyl)-6-fluoropyridin-2-yl](phenyl)methyl]-4-fluoro-1-[2-(6-oxo-1,6-dihydropyridin-3-yl)acetyl]pyrrolidine-2-carboxamide] | 710 nM | > 100000 nM | 8 nM
CC(C)c1ccc([C@@H](NC(=O)[C@@H]2C[C@@H](F)CN2S(=O)(=O)Cc2cnn[nH]2)c2ccccc2)cc1F [Compound 772, (2S,4R)-4-fluoro-N-[(S)-[3-fluoro-4-(propan-2-yl)phenyl](phenyl)methyl]-1-[(1H-1,2,3-triazol-5-yl)methanesulfonyl] pyrrolidine-2-carboxamide] | 4530 nM | > 100000 nM | 356 nM
O=C(N[C@@H](c1ccccc1)c1ccc(C2CC2)c(F)c1)[C@@H]1C[C@@H](F)CN1C(=O)Cc1noc(=O)[nH]1 [Compound 492, (2S,4R)-N-[(S)-(4-cyclopropyl-3-fluorophenyl)(phenyl)methyl]-4-fluoro-1-[2-(5-oxo-4,5-dihydro-1,2,4-oxadiazol-3-yl)acetyl]pyrrolidine-2-carboxamide] | > 30000 nM | > 100000 nM | 138 nM
CN(CC(=O)N1C[C@H](F)C[C@H]1C(=O)N[C@@H](c1ccccc1)c1ccc(C2CC2)c(F)c1)c1cnccn1 [Compound 475, (2S,4R)-N-[(S)-(4-cyclopropyl-3-fluorophenyl)(phenyl)methyl]-4-fluoro-1-{2-[methyl(pyrazin-2-yl)amino]acetyl} pyrrolidine-2-carboxamide] | 1290 nM | > 100000 nM | 77 nM
CC(C)(C)c1ccc(C(NC(=O)[C@@H]2C[C@@H](F)CN2C(=O)Cc2cnn[nH]2)c2ccccc2)nc1 (single isomer, unassigned) [Compound 611, (2S,4R)-N-[(S) or (R)-(5-tert-butylpyridin-2-yl)(phenyl)methyl]-4-fluoro-1-[2-(1H-1,2,3-triazol-5-yl)acetyl]pyrrolidine-2-carboxamide] | 5320 nM | > 100000 nM | 547 nM
Cc1cn(CC(=O)N2C[C@H](F)C[C@H]2C(=O)N[C@@H](c2ccccc2)c2ccc(C3CC(F)(F)C3)c(F)n2)c(=O)[nH]c1=O [Compound 506, (2S,4R)-N-[(S)-[5-(3,3-difluorocyclobutyl)-6-fluoropyridin-2-yl](phenyl)methyl]-4-fluoro-1-[2-(5-methyl-2,4-dioxo-1,2,3,4-tetrahydropyrimidin-1-yl)acetyl] pyrrolidine-2-carboxamide] | 370 nM | > 100000 nM | 4 nM
O=C(N[C@@H](c1ccccc1)c1ccc(C2CC2)c(F)c1)[C@@H]1C[C@@H](F)CN1C(=O)CNC(=O)N1CCOCC1 [Compound 452, N-{2-[(2S,4R)-2-{[(S)-(4-cyclopropyl-3-fluorophenyl)(phenyl)methyl]carbamoyl}-4-fluoropyrrolidin-1-yl]-2-oxoethyl} morpholine-4-carboxamide] | 980 nM | > 100000 nM | 40 nM
CC1(c2ccc([C@@H](NC(=O)[C@@H]3C[C@@H](F)CN3C(=O)CN3CC(=O)NCC3=O)c3ccccc3)cc2F)CC1 [Compound 572, (2S,4R)-1-[2-(2,5-dioxopiperazin-1-yl)acetyl]-4-fluoro-N-[(S)-[3-fluoro-4-(1-methylcyclopropyl)phenyl](phenyl)methyl]pyrrolidine-2-carboxamide] | 3600 nM | > 100000 nM | 205 nM
CC(C)c1ccc([C@@H](NC(=O)[C@@H]2C[C@@H](F)CN2C(=O)Cc2cnn(C)c2)c2ccccc2)cc1F [Compound 355, (2S,4R)-4-fluoro-N-[(S)-[3-fluoro-4-(propan-2-yl)phenyl](phenyl)methyl]-1-[2-(1-methyl-1H-pyrazol-4-yl)acetyl]pyrrolidine-2-carboxamide] | 160 nM | > 100000 nM | 18 nM
CC(=O)NCc1cnnn1CC(=O)N1C[C@H](F)C[C@H]1C(=O)N[C@@H](c1ccccc1)c1ccc(C(C)C)cc1 [Compound 243, (2S,4R)-1-{2-[5-(acetamidomethyl)-1H-1,2,3-triazol-1-yl]acetyl}-4-fluoro-N-[(S)-phenyl[4-(propan-2-yl)phenyl]methyl]pyrrolidine-2-carboxamide] | 2250 nM | > 100000 nM | 86 nM
Cn1nc(CC(=O)N2C[C@H](F)C[C@H]2C(=O)N[C@@H](c2ccccc2)c2ccc(C3CC3)c(F)n2)n(C)c1=O [Compound 722, (2S,4R)-N-[(S)-(5-cyclopropyl-6-fluoropyridin-2-yl)(phenyl)methyl]-1-[2-(1,4-dimethyl-5-oxo-4,5-dihydro-1H-1,2,4-triazol-3-yl)acetyl]-4-fluoropyrrolidine-2-carboxamide] | 1450 nM | > 100000 nM | 85 nM
CC1(c2ccc([C@@H](NC(=O)[C@@H]3C[C@@H](F)CN3C(=O)Cn3c(=O)[nH]c4ccccc43)c3ccccc3)cc2F)CC1 [Compound 570, (2S,4R)-4-fluoro-N-[(S)-[3-fluoro-4-(1-methylcyclopropyl)phenyl](phenyl)methyl]-1-[2-(2-oxo-2,3-dihydro-1H-1,3-benzodiazol-1-yl)acetyl]pyrrolidine-2-carboxamide] | 1220 nM | > 100000 nM | 82 nM
CCn1c(=O)c(C)cn(CC(=O)N2C[C@H](F)C[C@H]2C(=O)N[C@@H](c2ccccc2)c2ccc(C3CC3)c(F)n2)c1=O [Compound 733, (2S,4R)-N-[(S)-(5-cyclopropyl-6-fluoropyridin-2-yl)(phenyl)methyl]-1-[2-(3-ethyl-5-methyl-2,4-dioxo-1,2,3,4-tetrahydropyrimidin-1-yl)acetyl]-4-fluoropyrrolidine-2-carboxamide] | 150 nM | > 100000 nM | 5 nM
CC1(c2ccc([C@@H](NC(=O)[C@@H]3C[C@@H](F)CN3C(=O)Cc3cnn[nH]3)c3ccccc3)cc2F)CCC1 [Compound 681, (2S,4R)-4-fluoro-N-[(S)-[3-fluoro-4-(1-methylcyclobutyl)phenyl](phenyl)methyl]-1-[2-(1H-1,2,3-triazol-5-yl)acetyl]pyrrolidine-2-carboxamide] | 430 nM | > 100000 nM | 30 nM
